Data: patent publication US6692443B2, “Systems and methods for investigating blood flow” (New Health Sciences, Inc., priority 2000, dated 2004)

System: cerebral vessels
Experimental: A person with a history of hypertension experiences a first stroke in the left middle cerebral artery resulting in deficits in the right hand, leg, and some deficits in motor speech. These are the symptoms upon presentation in the neurological clinic. Transcranial Doppler analysis of all cerebral vessels is performed in addition to analyzing the common carotid artery and the internal carotid artery.
The physician considers prescription of Plavix together with a calcium channel blocker. Transcranial Doppler analysis was performed at monthly intervals. […] The physician subsequently administers a higher dose. Again, transcranial Doppler analysis is performed on all cerebral vessels.

Q: With COC(=O)[C@H](c1ccccc1Cl)N1CCc2sccc2C1 [Plavix] as the compound, how does the “changes in the individual cerebral vessels (transcranial Doppler)” value (person after first stroke, Plavix +/− calcium channel blocker, initial dose, analysis at monthly intervals) read?
A: no effect on the cerebral vessels

Q: What about the “auto-regulation curve (transcranial Doppler)” value (same patient, higher dose) of the same compound?
A: left-shifts toward normal

Q: What about the “pulsatility index of the vessel studied (transcranial Doppler)” value (same patient, higher dose) of the same compound?
A: decreases
